Data from PMC9861858, “Stereoselective Synthesis and Antiproliferative Activities of Tetrafunctional Diterpene Steviol Derivatives” (International Journal of Molecular Sciences, 2023).
Values after ≈ are worked out from the molar mass of the structure shown. Blank lines part the entries; values can stand above or below the compound they belong to.

Columns and labels:
[1] = tested on: MCF-7 cells; test: MTT antiproliferative assay, MCF-7; format: cell-based, human; details: Homo sapiens, 72 h, values <20% considered negligible, read-out: Growth inhibition (%) ± SEM, MCF-7; for inhibition at 10 µM: MCF7, 10 μM; for inhibition at 30 µM: MCF7, 30 μM
Description: (§1) The in vitro antiproliferative activities of the synthesised aminotriols 5–18 against a panel of different human cancer cell lines of gynecological origin, including cervical (SiHA and HeLa), breast (MCF7 and MDA-MB-231), ovary (A2780) cancers and NIH/3T3 healthy fibroblasts, were assayed by the MTT method. Cisplatin, a clinically applied anticancer agent was used as a reference compound, and the results are summarised in Figure 3 and Table S1 in the Supplementary Materials.
(§2) The growth-inhibitory effects of the presented terpenes were determined by a standard MTT [3-(4,5-dimethylthiazol2-yl)-2,5-diphenyltetrazolium bromide] assay against […] human cancer cell lines (cervical cancer HeLa and SiHa cell lines, breast cancer MCF-7 and MDA-MB-231 and ovarian cancer A2780). Murine embryonal fibroblast cells (NIH/3T3) were used to determine selectivity. All cell lines were purchased from the European Collection of Cell Cultures (Salisbury, UK). The cells were cultivated in Eagle’s minimal essential medium supplemented with 10% fetal bovine serum, 1% non-essential amino acids, and 1% Antibiotic-Antimycotic complex (penicillin, streptomycin, amphotericin B) at 37 °C in a humidified atmosphere containing 5% CO2. All media and supplements were purchased from Lonza Group Ltd. (Basel, Switzerland). Cancer cells were seeded into 96-well plates (5000 cells/well) after an overnight incubation, and the test compounds were added at two different concentrations (10 μM and 30 μM) and incubated for another 72 h under cell-culturing conditions. Finally, 20 μL of a 5 mg/mL MTT solution was added to each well, and the contents were incubated for a further 4 h. The medium was removed, and the precipitated formazan crystals were dissolved in DMSO by shaking at 37 °C for 60 min. The absorbance was measured at 545 nm by using a microplate reader (SPECTROStar Nano, BMG Labtech, Offenburg, Germany). Clinically utilised anticancer agent cisplatin (Ebewe GmbH, Unterach, Austria) was included as a reference molecule. Calculations were performed using the GraphPad Prism 9 software (GraphPad Software Inc., San Diego, CA, USA).

[2] = tested on: HeLa cells; test: MTT antiproliferative assay, HeLa; format: cell-based, human; details: for inhibition at 10 µM / inhibition at 30 µM: Homo sapiens, HeLa, 72 h, values <20% considered negligible, read-out: Growth inhibition (%) ± SEM, HeLa
Description: as §1, §2

[3] = tested on: NIH/3T3 fibroblasts; test: MTT assay on fibroblasts (selectivity); format: cell-based, murine; details: Mus musculus, 72 h, values <20% considered negligible, read-out: Growth inhibition (%) ± SEM, NIH/3T3; for inhibition at 10 µM: NIH3T3, 10 μM; for inhibition at 30 µM: NIH3T3, 30 μM
Description: as §1, §2

[4] = tested on: MDA-MB-231 cells; test: MTT antiproliferative assay, MDA-MB-231; format: cell-based, human; details: Homo sapiens, 72 h, values <20% considered negligible, read-out: Growth inhibition (%) ± SEM, MDA-MB-231; for inhibition at 10 µM: MDA-MB-231, 10 μM; for inhibition at 30 µM: MDA-MB-231, 30 μM
Description: as §1, §2

[5] = tested on: human cancer cell lines (HeLa, SiHa, A2780, MCF-7 and MDA-MB-231); test: MTT antiproliferative assay, whole cancer cell panel; format: cell-based; details: 10 and 30 μM
Description: as §1, §2

[6] = tested on: SiHa cells; test: MTT antiproliferative assay, SiHa; format: cell-based, human; details: Homo sapiens, SiHa, 72 h, values <20% considered negligible, read-out: Growth inhibition (%) ± SEM, SiHa
Description: as §1, §2

[7] = tested on: A2780 cells; test: MTT antiproliferative assay, A2780; format: cell-based, human; details: Homo sapiens, 72 h, values <20% considered negligible, read-out: Growth inhibition (%) ± SEM, A2780; for inhibition at 10 µM: A2780, 10 μM; for inhibition at 30 µM: A2780, 30 μM
Description: as §1, §2

[8] = Kinetic aqueous solubility; format: physicochemical; details: phosphate buffered saline with 5% DMSO, aqueous with cosolvent or surfactant or cyclodextrin, kinetic from dmso stock; after 2 h, at 37 °C in PBS, pH 7.4, 5% DMSO; target concentration 500 μM; mean ± S.E.M, n = 3
Description: (§3) Filtrates and calibration solutions (5–500 μ M) of the kinetic solubility study and starting donor and acceptor solutions of the PAMPA-GI study were investigated by HPLC-DAD-MS. LC-MS analysis was performed using a Waters 2795 HPLC with a Waters 2487 DAD detector coupled with a Micromass Quattro Ultima TMPt quadrupol mass spectrometer equipped with an ESI source. Measurements were performed on a Waters XSelect C18 (150 × 4.6 mm; 3.5 μm) column with a […] eluent flow rate and the temperature set at 40 °C. The composition of eluent A was MilliQ water with 0.1% formic acid, and that of eluent B was an acetonitrile and MilliQ water mixture (95:5, v/v), also with 0.1% formic acid. The following linear gradient program was used: 0–6 min, 10–100% B; this was held for 3 min, then from 9.01 min on, back to the starting composition of 10% B–90% A. The injection volume was 10 μL for each sample. Chromatographic profiles were registered at dual wavelength, 220 and 240 nm. The mass spectrometer was used in negative ion mode for samples 2, 3 and 4b, and in positive ion mode for other samples. The operating parameters of the MS were: Mass range of m/z 150–700. Nitrogen gas flow rate was 350 L/h, temperature of 350 °C and pressure of 6 bar. The quadrupol temperature was 120 °C, and the capillary voltage was 2.5 kV. Fragmentor’s voltage of 60 V.
(§4) Intestinal (GI) permeability was determined by using an intestinal-specific parallel artificial membrane permeability assay (PAMPA-GI [36]]). […] All solutions were filtered by MultiScreen HTS Vacuum Manifold (Merck Ltd., Budapest, Hungary) after the incubation period. The target concentration was 500 μM for every sample investigated. The intestinal-specific effective permeability of the samples was determined by PAMPA-GI. To prepare starting solutions for a 96-well donor plate, 15 μLs of the 10 mM DMSO stock solution of investigation compounds and 285 μL pH 6.5 phosphate buffer solution were mixed. These solutions were left in a shaking incubator (300 rpm) at 25 °C for 1 h. Meanwhile, a 96-well acceptor plate was filled with 300 μL of pH 7.4 PBS buffer solution containing 5% DMSO. The intestinal-specific artificial membrane was prepared the following way: the hydrophobic filter material of the donor plate was coated with a mixture of phosphatidylcholine/cholesterol = 2:1 (5 μL, 4 % (w/v) in dodecane). After that, all donor wells were filled with 150 μL of the starting donor solutions, and they were carefully placed on the acceptor plate and incubated at 37 °C for 4 h. After the end of the incubation period the donor and acceptor plates were separated carefully. A total of 150 μL of the donor, acceptor and the starting donor solutions were sampled and analysed with HPLC-DAD-MS. The effective permeability and membrane retention of drugs were calculated using the following equations: Pe=−2.303/A·(t−τss)·1/1+rv·lg[−rv+(1+rv/1−MR)·]CD(t)/CD(0) MR=1−CD(t)/CD(0)−VA·CA(t)/VD·CD(0) where Pe is the effective permeability coefficient (cm/s), A is the filter area (0.3 cm^2), VD and VA are the volumes in the donor (0.15 cm^3) and acceptor phase (0.3 cm^3), t is the incubation time (s), τSS is the time to reach steady-state (s), CD(t) is the concentration of the compound in the donor phase at time point t (mol/cm^3), CD(0) is the concentration of the compound in the donor phase at time point zero (mol/cm^3), rv is the aqueous compartment volume ratio (VD/VA), MR is the membrane retention factor.

[9] = Intestinal-specific parallel artificial membrane permeability assay (PAMPA-GI); format: in vitro ADME; details: gradient pH system (pH donor 6.5 → pH acceptor 7.4) after 4 h, at 37 °C; mean ± S.E.M, n = 3
Description: as §3, §4

melting point: 182 to 185 °C
SMILES: COC(=O)[C@]1(C)CCC[C@@]2(C)C3CC[C@]4(O)C[C@@]3(CCC21)[C@@H](O)[C@]41CO1 (stereo partly drawn) [Compound 4b, (2’R,4R,6aR,7R,9S,11bS)-Methyl 7,9-Dihydroxy-4,11b-dimethyldodecahydro-1H-spiro[6a,9-methanocyclohepta[a]naphthalene-8,2’-oxirane]-4-carboxylate]
inhibition at 10 µM [1]: < 20%
inhibition at 30 µM [1]: 53.1 ± 2.2%
Antiproliferative effect on HeLa, in words ([2]; 10 and 30 μM): potent inhibition
inhibition at 10 µM [2]: 30.6 ± 1.09%
inhibition at 30 µM [2]: 95.35 ± 0.11%
inhibition at 10 µM [3]: < 20%
inhibition at 30 µM [3]: 37.2 ± 0.71%
inhibition at 10 µM [4]: < 20%
inhibition at 30 µM [4]: 36.7 ± 1.62%
Antiproliferative activity on the cancer cell panel, in words [5]: significant activity in higher concentrations only
inhibition at 10 µM [6]: < 20%
inhibition at 30 µM [6]: 58 ± 2.66%
inhibition at 10 µM [7]: < 20%
inhibition at 30 µM [7]: 62 ± 0.78%

melting point: 253 to 255 °C
SMILES: C=C1[C@H](O)[C@@]23CCC4[C@@](C)(CCC[C@@]4(C)C(=O)OC)C2CC[C@]1(O)C3 (stereo partly drawn) [Compound 3, (4R,6aR,7R,9S,11bS)-Methyl 7,9-Dihydroxy-4,11b-dimethyl-8-methylenetetradecahydro-6a,9-methanocyclohepta[a]naphthalene-4-carboxylate]
inhibition at 10 µM [1]: < 20%
inhibition at 30 µM [1]: 49.2 ± 2.19%
inhibition at 10 µM [2]: < 20%
inhibition at 30 µM [2]: 27.9 ± 2.3%
inhibition at 10 µM [3]: < 20%
inhibition at 30 µM [3]: < 20%
inhibition at 10 µM [4]: < 20%
inhibition at 30 µM [4]: < 20%
Antiproliferative activity on the cancer cell panel, in words [5]: any notable effect was not detectable
inhibition at 10 µM [6]: < 20%
inhibition at 30 µM [6]: 30.7 ± 2.71%
inhibition at 10 µM [7]: < 20%
inhibition at 30 µM [7]: < 20%

solubility kinetic at 2 h [8]: 535 ± 38.4 µM (≈ 204 µg/mL)
melting point: 152 to 155 °C
PAMPA-GI MR (membrane retention) [9]: 1.5 ± 0.3%
SMILES: COC(=O)[C@]1(C)CCC[C@@]2(C)C3CC[C@]4(O)C[C@@]3(CCC21)[C@@H](O)[C@]4(O)CN (stereo partly drawn) [Compound 17, (4R,6aR,7R,8R,9S,11bS)-Methyl 8-(Aminomethyl)-7,8,9-trihydroxy-4,11b-dimethyltetradecahydro-6a,9-methanocyclohepta[a]naphthalene-4-carboxylate]
inhibition at 10 µM [1]: < 20%
inhibition at 30 µM [1]: < 20%
inhibition at 10 µM [2]: < 20%
inhibition at 30 µM [2]: 28.9 ± 2.72%
inhibition at 10 µM [3]: < 20%
inhibition at 30 µM [3]: < 20%
inhibition at 10 µM [4]: < 20%
inhibition at 30 µM [4]: 30.4 ± 2.04%
Antiproliferative activity on the cancer cell panel, in words [5]: any notable effect was not detectable
inhibition at 10 µM [6]: < 20%
inhibition at 30 µM [6]: < 20%
inhibition at 10 µM [7]: < 20%
inhibition at 30 µM [7]: < 20%
